Test: xn = mol fraction of the nth substance listed
Conditions: 100 kPa, Liquid; for viscosity: Capillary tube (Ostwald / Ubbelohde) method; for speed of sound: Frequency=2 MHz, Single path-length method; for mass density: Vibrating tube method

C=COC(C)=O [vinyl acetate] + CCCCOCCCC
Conditions	mass density, 303.15 K [kg/m3]	mass density, 308.15 K [kg/m3]	mass density, 313.15 K [kg/m3]	speed of sound, 303.15 K [m/s]	speed of sound, 308.15 K [m/s]	speed of sound, 313.15 K [m/s]	viscosity, 303.15 K [mPa·s]	viscosity, 308.15 K [mPa·s]	viscosity, 313.15 K [mPa·s]
x1 = 0.0956	767.4	763	758.2	1141	1123	1107	0.575	0.54	0.509
x1 = 0.1922	776.2	771.6	767	1136	1118	1100	0.549	0.517	0.489
x1 = 0.3008	787.4	782.6	777.8	1131	1112	1093	0.522	0.493	0.467
x1 = 0.3962	798.4	793.5	788.5	1126	1107	1087	0.499	0.472	0.447
x1 = 0.5008	812.2	807.1	801.9	1120	1102	1080	0.476	0.451	0.427
x1 = 0.5997	827.4	822	816.6	1115	1096	1074	0.455	0.431	0.409
x1 = 0.6995	845	839.4	833.7	1110	1091	1068	0.436	0.414	0.393
x1 = 0.7995	865.6	859.8	853.8	1104	1085	1063	0.417	0.398	0.379
x1 = 0.8998	890	883.8	877.6	1099	1080	1058	0.401	0.383	0.365
x1 = 1	919.4	913.5	907.3	1092	1074	1054	0.388	0.37	0.352

C=COC(C)=O [vinyl acetate] + COc1ccccc1
Conditions	mass density, 303.15 K [kg/m3]	mass density, 308.15 K [kg/m3]	mass density, 313.15 K [kg/m3]	speed of sound, 303.15 K [m/s]	speed of sound, 308.15 K [m/s]	speed of sound, 313.15 K [m/s]	viscosity, 303.15 K [mPa·s]	viscosity, 308.15 K [mPa·s]	viscosity, 313.15 K [mPa·s]
x1 = 0.0981	979.4	974.6	969.5	1350	1329	1310	0.843	0.775	0.724
x1 = 0.199	974	969	963.8	1316	1294	1274	0.766	0.708	0.664
x1 = 0.3015	968.3	963.1	957.8	1283	1260	1239	0.696	0.647	0.609
x1 = 0.3972	962.6	957.4	951.9	1253	1230	1208	0.638	0.595	0.562
x1 = 0.5005	956.2	950.8	945.2	1223	1199	1177	0.583	0.546	0.515
x1 = 0.5979	949.8	944.2	938.5	1194	1171	1150	0.535	0.503	0.476
x1 = 0.6988	942.8	937	931.1	1167	1144	1122	0.492	0.464	0.439
x1 = 0.8029	935.1	929.2	923.1	1139	1118	1096	0.451	0.427	0.406
x1 = 0.9005	927.5	921.5	915.3	1115	1095	1074	0.418	0.397	0.377
x1 = 1	919.4	913.5	907.3	1092	1074	1054	0.388	0.37	0.352
